Test results from patent US7951811B2, “Pyrrolo[2,3-D]pyrimidine derivatives substituted with a cyclic amino group” (Taisho Pharmaceutical Co., Ltd., priority 2004, dated 2011).

The compounds below were run against T1, δ receptor (delta opioid receptor) (Rattus norvegicus, UniProt P33533) (assay: δ receptor binding test (3H-DPDPE displacement)). Conditions: rat brain membranes, 3H-DPDPE 1.5 nM, 25° C., 70 minutes; read-out: IC50 (concentration at which binding of 3H-DPDPE is inhibited by 50%).
T1 construct: Rat Brain Membranes were Used as a Receptor Preparation; from tissue; host or cells: rat brain membranes
Description: Rat Brain Membranes were Used as a Receptor Preparation.
^3H-DPDPE ([D-Pen^2,D-Pen^5]-Enkephalin) was used as ^3H-labeled ligand.
Binding reaction using the ^3H-labeled ligand was carried out by the following method.
Preparation of Receptor Membranes:
Rat brain was homogenized in 50 mM Tris-HCl buffer (pH 7.4) containing 10 mM MgCl2 and 1 mM EDTA, and centrifuged at 48,000×g for 20 min, and the precipitate was washed once with Tris-HCl buffer. The washed precipitate was suspended in 50 mM Tris-HCl buffer (pH 7.4) containing 10 mM MgCl2 and 1 mM EDTA, to obtain a membrane preparation.
Delta Opioid Receptor Binding Test:
The membrane preparation (1 mg protein/ml), H-DPDPE (1.5 nM) and a test drug were reacted at 25° C. for 70 minutes. After completion of the reaction, the reaction mixture was filtered by suction through a glass filter (GF/B) treated with 0.3% polyethylene imine, and the glass filter was washed three times with 50 mM Tris-HCl buffer (pH 7.4) containing 10 mM MgCl2 and 1 mM EDTA. After the washing, scintillation cocktail was added to the filters, and the radioactivity of the filter was measured in a liquid scintillation counter.
The amount of ^3H-DPDPE bound when the reaction was carried out in the presence of 10 μM naltrindole was taken as the degree of nonspecific binding of ^3H-DPDPE, and the difference between the total degree of ^3H-DPDPE binding and the degree of nonspecific ^3H-DPDPE binding was taken as the degree of specific ^3H-DPDPE binding. An inhibition curve was obtained by reacting a definite concentration (1.5 nM) of ^3H-DPDPE with various concentrations of each test drug under the conditions described above. A concentration of the test drug at which binding of ^3H-DPDPE is inhibited by 50% (IC50) was determined from the inhibition curve.

T1 sequence (P33533 whole entry): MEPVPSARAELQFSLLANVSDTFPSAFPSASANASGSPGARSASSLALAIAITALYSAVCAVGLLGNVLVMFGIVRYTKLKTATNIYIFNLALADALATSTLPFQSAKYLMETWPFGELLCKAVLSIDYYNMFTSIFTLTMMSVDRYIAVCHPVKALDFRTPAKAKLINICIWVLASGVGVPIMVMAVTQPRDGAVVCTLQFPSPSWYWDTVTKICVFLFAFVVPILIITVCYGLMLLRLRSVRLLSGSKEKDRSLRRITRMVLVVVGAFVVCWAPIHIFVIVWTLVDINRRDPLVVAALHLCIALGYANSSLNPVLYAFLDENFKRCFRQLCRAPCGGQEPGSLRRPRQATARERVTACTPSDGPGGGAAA

| IC50 [µM] | SMILES |
| --- | --- |
| ≤ 0.5 | Cc1cc(N2CCC(CCC(=O)O)CC2)c2c(C)cn(-c3c(C)cc(Cl)cc3C)c2n1 [Compound 1-022, 3-{1-[1-(4-chloro-2,6-dimethyl-phenyl)-3,6-dimethyl-1H-pyrrolo[2,3-b]pyridin-4-yl]-piperidin-4-yl}-propionic acid] |
| ≤ 0.5 | Cc1cc(N2CCC(CC(=O)O)CC2)c2c(C)cn(-c3c(C)cc(Cl)cc3C)c2n1 [Compound 1-006, {1-[1-(4-chloro-2,6-dimethyl-phenyl)-3,6-dimethyl-1H-pyrrolo[2,3-b]pyridin-4-yl]-piperidin-4-yl}-acetic acid] |
| ≤ 0.5 | Cc1cc(N2CCC(CC(=O)O)CC2)c2c(C)c(C)n(-c3c(C)cc(Cl)cc3C)c2n1 [Compound 1-005, {1-[1-(4-chloro-2,6-dimethyl-phenyl)-2,3,6-trimethyl-1H-pyrrolo[2,3-b]pyridin-4-yl]-piperidin-4-yl}-acetic acid] |
| ≤ 0.5 | Cc1cc(N2CCC(CC(=O)O)CC2)c2c(C)cn(-c3c(Br)cc(Cl)cc3Br)c2n1 [Compound 1-012, {1-[1-(2,6-dibromo-4-chloro-phenyl)-3,6-dimethyl-1H-pyrrolo[2,3-b]pyridin-4-yl]-piperidin-4-yl}-acetic acid] |
| ≤ 0.5 | Cc1cc(N2CCC(CC(=O)O)CC2)c2c(C)cn(-c3c(C)cc(Br)cc3C)c2n1 [Compound 1-004, {1-[1-(4-bromo-2,6-dimethyl-phenyl)-3,6-dimethyl-1H-pyrrolo[2,3-b]pyridin-4-yl]-piperidin-4-yl}-acetic acid] |
| ≤ 0.5 | Cc1cc(N2CCC(CCC(=O)O)CC2)c2c(C)cn(-c3c(C)cc(Br)cc3C)c2n1 [Compound 1-020, 3-{1-[1-(4-bromo-2,6-dimethyl-phenyl)-3,6-dimethyl-1H-pyrrolo[2,3-b]pyridin-4-yl]-piperidin-4-yl}-propionic acid] |

Second part, the compound before the results:

| SMILES | IC50 [µM] |
| --- | --- |
| Cc1cc(N2CCC(CCC(=O)O)CC2)c2c(C)cn(-c3c(Cl)cc(Cl)cc3Cl)c2n1 [Compound 1-026, 3-{1-[3,6-dimethyl-1-(2,4,6-trichloro-phenyl)-1H-pyrrolo[2,3-b]pyridin-4-yl]piperidin-4-yl}-propionic acid] | ≤ 0.5 |
| Cc1nc(N2CCC(CCC(=O)O)CC2)c2c(C)cn(-c3c(C)cc(Br)cc3C)c2n1 [Compound 1-018, 3-{1-[7-(4-bromo-2,6-dimethyl-phenyl)-2,5-dimethyl-7H-pyrrolo[2,3-d]pyrimidin-4-yl]-piperidin-4-yl}-propionic acid] | ≤ 0.5 |
| Cc1cc(N2CCC(CCC(=O)O)CC2)c2c(C)c(C)n(-c3c(C)cc(Cl)cc3C)c2n1 [Compound 1-021, 3-{1-[1-(4-chloro-2,6-dimethyl-phenyl)-2,3,6-trimethyl-1H-pyrrolo[2,3-b]pyridin-4-yl]-piperidin-4-yl}-propionic acid] | ≤ 0.5 |
| Cc1cc(N2CCC(CC(=O)O)CC2)c2c(C)cn(-c3c(Cl)cc(Cl)cc3Cl)c2n1 [Compound 1-011, {1-[3,6-dimethyl-1-(2,4,6-trichloro-phenyl)-1H-pyrrolo[2,3-b]pyridin-4-yl]-piperidin-4-yl}-acetic acid] | ≤ 0.5 |
| Cc1cc(N2CCC(CCC(=O)O)CC2)c2c(C)c(C)n(-c3c(C)cc(Br)cc3C)c2n1 [Compound 1-019, 3-{1-[1-(4-bromo-2,6-dimethyl-phenyl)-2,3,6-trimethyl-1H-pyrrolo[2,3-b]pyridin-4-yl]-piperidin-4-yl}-propionic acid] | ≤ 0.5 |
| Cc1cc(N2CCC(CCC(=O)O)CC2)c2c(C)cn(-c3c(Br)cc(Cl)cc3Br)c2n1 [Compound 1-027, 3-{1-[1-(2,6-dibromo-4-chloro-phenyl)-3,6-dimethyl-1H-pyrrolo[2,3-b]pyridin-4-yl]-piperidin-4-yl}-propionic acid] | ≤ 0.5 |
| Cc1cc(N2CCC(CC(=O)O)CC2)c2c(C)c(C)n(-c3c(C)cc(Br)cc3C)c2n1 [Compound 1-003, {1-[1-(4-bromo-2,6-dimethyl-phenyl)-2,3,6-trimethyl-1H-pyrrolo[2,3-b]pyridin-4-yl]-piperidin-4-yl}-acetic acid] | ≤ 0.5 |
| Cc1cc(N2CCC(CCC(=O)O)CC2)c2c(C)cn(-c3c(Cl)cc(Br)cc3Cl)c2n1 [Compound 1-025, 3-{1-[1-(4-bromo-2,6-dichloro-phenyl)-3,6-dimethyl-1H-pyrrolo[2,3-b]pyridin-4-yl]-piperidin-4-yl}-propionic acid] | ≤ 0.5 |
| Cc1nc(N2CCC(CC(=O)O)CC2)c2c(C)cn(-c3c(C)cc(Br)cc3C)c2n1 [Compound 1-002, {1-[7-(4-bromo-2,6-dimethyl-phenyl)-2,5-dimethyl-7H-pyrrolo[2,3-d]pyrimidin-4-yl]-piperidin-4-yl}-acetic acid] | ≤ 0.5 |
| Cc1nc(N2CCC(CC(=O)O)CC2)c2c(C)c(C)n(-c3c(C)cc(Br)cc3C)c2n1 [Compound 1-001, {1-[7-(4-bromo-2,6-dimethyl-phenyl)-2,5,6-trimethyl-7H-pyrrolo[2,3-d]pyrimidin-4-yl]-piperidin-4-yl}-acetic acid] | ≤ 0.5 |
| Cc1cc(N2CCC(CCCC(=O)O)CC2)c2c(C)c(C)n(-c3c(C)cc(Br)cc3C)c2n1 [Compound 1-032, 4-{1-[1-(4-bromo-2,6-dimethyl-phenyl)-2,3,6-trimethyl-1H-pyrrolo[2,3-b]pyridin-4-yl]-piperidin-4-yl}-butyric acid] | ≤ 0.5 |
| Cc1cc(N2CCC(CP(=O)(O)O)CC2)c2c(C)cn(-c3c(C)cc(Br)cc3C)c2n1 [Compound 1-045, {1-[1-(4-bromo-2,6-dimethyl-phenyl)-3,6-dimethyl-1H-pyrrolo[2,3-b]pyridin-4-yl]-piperidin-4-ylmethyl}-phosphonic acid] | ≤ 0.5 |
| Cc1cc(N2CCC(CC(=O)O)CC2)c2c(C)cn(-c3ccc(Br)cc3Br)c2n1 [Compound 1-016, {1-[1-(2,4-dibromo-phenyl)-3,6-dimethyl-1H-pyrrolo[2,3-b]pyridin-4-yl]-piperidin-4-yl}-acetic acid] | ≤ 0.5 |
| Cc1cc(N2CCC(CS(=O)(=O)O)CC2)c2c(C)cn(-c3c(C)cc(Br)cc3C)c2n1 [Compound 1-047, {1-[1-(4-bromo-2,6-dimethyl-phenyl)-3,6-dimethyl-1H-pyrrolo[2,3-b]pyridin-4-yl]-piperidin-4-yl}-methanesulfonic acid] | ≤ 0.5 |
| Cc1cc(N2CCC(CCS(=O)(=O)O)CC2)c2c(C)cn(-c3c(C)cc(Br)cc3C)c2n1 [Compound 1-048, 2-{1-[1-(4-bromo-2,6-dimethyl-phenyl)-3,6-dimethyl-1H-pyrrolo[2,3-b]pyridin-4-yl]-piperidin-4-yl}-ethanesulfonic acid] | ≤ 0.5 |
